These are literature values, as cited in US8709720B2, “Methods and kits for predicting the responsiveness of hepatocellular carcinoma patients to 5-fluorouracil-based combination chemotherapy” (priority 2012, dated 2014).

The test system of this data set is advanced HCC. The settings on record: advanced HCC patients, prior research / clinical trials.

Structures are written as SMILES.

For the molecule `COc1cccc2c1C(=O)c1c(O)c3c(c(O)c1C2=O)C[C@@](O)(C(=O)CO)C[C@@H]3O[C@H]1C[C@H](N)[C@H](O)[C@H](C)O1` [doxorubicin], the response rate is listed as 32%.
